Like-named read-outs stand apart in the source and are kept apart here.
What was measured:
[1] = test system: ovalbumen-induced systemic edema; experiment: Ovalbumen-induced systemic edema method; assay type: in vivo; details: rats, 100 mg/kg orally 1 hour before and with ovalbumen; for inhibition in vivo at 100 mg/kg: Rattus norvegicus, po
Experimental: (b) Ovalbumen-induced systemic edema method
Simultaneous injection of 1 ml ovalbumen and 0.5 ml of a 1% aqueous Evans Blue solution is effected in rats. On the other hand, the animals of the treated group are administered orally 100 mg/kg of the test derivative one hour prior to ovalbumen administration and simultaneously with said administration. The intensity of the phenomenon thus induced is scored according to a scale from 1 to 5 depending on the progress of the inflammatory syndrome. The mean intensity of the edem and the percent decrease of the edema reaction with respect to the control group are thus determined as a function of time.

[2] = test system: carrageenin-induced localized edema; experiment: Carrageenin-induced localized edema method; assay type: in vivo; details: rats, 100 mg/kg orally at -1, 0, 1 and 2.5 hours; for inhibition in vivo at 100 mg/kg: Rattus norvegicus, po
Experimental: (a) Carrageenin-induced localized edema method
0.1 ml of a 1% carrageenin solution is injected in the metatarsal flexor muscles of the right hind limb of rats at time 0. The animals of the treated group are additionally orally administered 100 mg/kg of the test derivative, respectively one hour prior to injection of the phlogogenic agent, simultaneously with said injection, and then 1 hour and 2.5 hours thereafter. The determinations effected by means of a ROCH micrometer at times 0, 1 hour, 2 hours, 3 hours and 5 hours after carrageenin administration make it possible to determine, as a function of time, the percent anti-inflammatory activity with respect to the reference group.

[3] = test system: A.D.P.-induced blood-platelet aggregation; experiment: A.D.P.-induced blood-platelet aggregation; assay type: in vivo, Wistar rats; details: rats, 100 mg/kg orally, 3 hours after treatment, 10 μM A.D.P. solution, with respect to control group; for inhibition at 100 mg/kg: Rattus norvegicus, po
Experimental: (§1) Blood is taken from the jugular vein of Wistar rats. From this citrated blood, and after centrifugation, is reconstituted a plasma containing 600,000 ± 20,000 blood-platelets per ml which is used in all aggregation determinations.
(§2) 0.4 ml plasma is placed in a siliconized tube provided with a magnet bar, also siliconized. The tube is introduced into an aggregometer coupled with an apparatus for recording optical density variations. When light transmission has reached a stable value, 0.5 ml of a solution containing 10 μM A.D.P. (Adenosine-Di-Phosphate) is introduced into the tube.
(§3) Blood-platelet aggregation causes an increase of light transmission followed by a decrease subsequent to the deaggregation phase.
(§4) The maximal optical density variation thus determined characterizes the intensity of the aggregation.
(§5) Different groups of 20 rats are used, each group being orally administered a test derivative at a dosage of 100 mg/kg.

[4] = test system: collagen-induced blood-platelet aggregation; experiment: Collagen-induced blood-platelet aggregation; assay type: in vivo, Wistar rats; details: rats, 100 mg/kg orally, 3 hours after treatment, collagen (bovine tendon extract), with respect to control group; for inhibition at 100 mg/kg: Rattus norvegicus, po, read-out: Percent inhibition of blood-platelet aggregation, Collagen
Experimental: as §1, §2, §3, §4
The A.D.P. solution is substituted with a collagen solution (bovine tendon extract).
as §5

[5] = 2 hours after ovalbumen, read-out: Percent anti-inflammatory activity after 2 hours
[6] = 3 hours after ovalbumen, read-out: Percent anti-inflammatory activity after 3 hours
[7] = 1 hour after carrageenin, read-out: Percent anti-inflammatory activity after 1 hour
[8] = 2 hours after carrageenin, read-out: Percent anti-inflammatory activity after 2 hours
[9] = 3 hours after carrageenin, read-out: Percent anti-inflammatory activity after 3 hours
[10] = 5 hours after carrageenin, read-out: Percent anti-inflammatory activity after 5 hours
[11] = read-out: Percent inhibition of blood-platelet aggregation, A.D.P.

Row | Compound | Percent anti-inflammatory activity after 2 hours ([1]; 2 hours after ovalbumen) [%] | Percent anti-inflammatory activity after 3 hours ([1]; 3 hours after ovalbumen) [%] | Percent anti-inflammatory activity after 1 hour ([2]; 1 hour after carrageenin) [%] | Percent anti-inflammatory activity after 2 hours ([2]; 2 hours after carrageenin) [%] | Percent anti-inflammatory activity after 3 hours ([2]; 3 hours after carrageenin) [%] | Percent anti-inflammatory activity after 5 hours ([2]; 5 hours after carrageenin) [%] | Percent inhibition of blood-platelet aggregation, A.D.P. [3] [%] | Percent inhibition of blood-platelet aggregation, Collagen [4] [%] | inhibition in vivo at 100 mg/kg [1, 5] [%] | inhibition in vivo at 100 mg/kg [1, 6] [%] | inhibition in vivo at 100 mg/kg [2, 7] [%] | inhibition in vivo at 100 mg/kg [2, 8] [%] | inhibition in vivo at 100 mg/kg [2, 9] [%] | inhibition in vivo at 100 mg/kg [2, 10] [%] | inhibition at 100 mg/kg [3, 11] [%] | inhibition at 100 mg/kg [4] [%] | inhibition at 100 mg/kg ([3]; 3 h, heading: Percent inhibition of blood-platelet aggregation) [%]
1 | Cc1ccc(N2Cc3sccc3C(c3ccccc3)C2)cc1 (stereo not drawn) [derivative n°18, 4-Phenyl-6-p.tolyl-4,5,6,7-tetrahydro-thieno[2,3-c]pyridine] | 47 | 56 | 40 | 48 | 53 | 56 | 62.5 | 93.5 |  |  |  |  |  |  |  |  | 
2 | Clc1ccccc1CN1Cc2ccsc2C(c2ccccc2)C1 (stereo not drawn) [derivative n°19, 5-o.Chlorobenzyl-7-phenyl-4,5,6,7-tetrahydro-thieno[3,2-c]pyridine] |  |  |  |  |  |  |  |  | 49 | 57 | 47 | 53 | 54 | 56 | 62.3 | 93.7 | 
3 | O=C(O)c1ccccc1CN1Cc2sccc2C(c2ccccc2)C1 (stereo not drawn) [derivative n°16, 6-o.Carboxybenzyl-4-phenyl-4,5,6,7-tetrahydro-thieno[2,3-c]pyridine] |  |  |  |  |  |  |  |  | 49 | 56 | 39 | 45 | 50 | 52 | 63.2 | 94.1 | 
4 | CC1NCc2ccsc2C1c1ccccc1 (stereo not drawn) [derivative n°2, 6-Methyl-7-phenyl-4,5,6,7-tetrahydro-thieno[3,2-c]pyridine] |  |  |  |  |  |  |  |  | 42 | 50 | 42 | 48 | 51 | 54 |  | 92.7 | 62.4
5 | Cc1ccc(C2CN(Cc3ccccc3Cl)Cc3sccc32)cc1 (stereo not drawn) [derivative n°10, 6-o.Chlorobenzyl-4-p.tolyl-4,5,6,7-tetrahydrothieno[2,3-c]pyridine] |  |  |  |  |  |  |  |  | 53 | 60 | 38 | 45 | 48 | 52 | 65 | 96 | 
6 | c1ccc(C2CNCc3ccsc32)cc1 (stereo not drawn) [derivative n°4, 7-Phenyl-4,5,6,7-tetrahydro-thieno[3,2-c]pyridine] |  |  |  |  |  |  |  |  | 54 | 62 | 38 | 44 | 49 | 53 | 64 | 95 | 
7 | c1ccc(CCN2Cc3sccc3C(c3ccccc3)C2)cc1 (stereo not drawn) [derivative n°25, 6-Phenethyl-4-phenyl-4,5,6,7-tetrahydro-thieno[2,3-c]pyridine] |  |  |  |  |  |  |  |  | 44 | 51 | 47 | 52 | 56 | 60 | 64.1 | 93.8 | 
8 | COC(=O)c1ccccc1CN1Cc2ccsc2C(c2ccccc2)C1 (stereo not drawn) [derivative n°28, 5-o.Methoxycarbonylbenzyl-7-phenyl-4,5,6,7-tetrahydro-thieno[3,2-c]pyridine] |  |  |  |  |  |  |  |  | 45 | 52 | 41 | 47 | 51 | 53 | 62.3 | 92.2 | 
9 | Clc1ccccc1CN1Cc2sccc2C(c2ccccc2)C1 (stereo not drawn) [derivative n°11, 6-o.Chlorobenzyl-4-phenyl-4,5,6,7-tetrahydrothieno[2,3-c]pyridine] |  |  |  |  |  |  |  |  | 51 | 58 | 39 | 45 | 49 | 55 | 62.8 | 91.2 | 
10 | Clc1ccc(C2CN(Cc3ccccc3Cl)Cc3sccc32)cc1 (stereo not drawn) [derivative n°9, 6-o.Chlorobenzyl-4-p.chlorophenyl-4,5,6,7-tetrahydro-thieno[2,3-c]pyridine] |  |  |  |  |  |  |  |  | 48 | 56 | 44 | 52 | 55 | 57 | 64.3 | 93.8 | 
11 | Fc1ccccc1CN1Cc2sccc2C(c2ccccc2)C1 (stereo not drawn) [derivative n°13, 6-o.Fluorobenzyl-4-phenyl-4,5,6,7-tetrahydrothieno[2,3-c]pyridine] |  |  |  |  |  |  |  |  | 43 | 50 | 46 | 51 | 55 | 57 | 64.3 | 94.8 | 
12 | CCCCN1Cc2ccsc2C(c2ccccc2)C1 (stereo not drawn) [derivative n°21, 5-Butyl-7-phenyl-4,5,6,7-tetrahydro-thieno[3,2-c]pyridine] |  |  |  |  |  |  |  |  | 51 | 57 | 38 | 44 | 46 | 49 | 62.2 | 94 | 
13 | O=[N+]([O-])c1ccc(CN2Cc3sccc3C(c3ccccc3)C2)cc1 (stereo not drawn) [derivative n°17, 6-p.Nitrobenzyl-4-phenyl-4,5,6,7-tetrahydro-thieno[2,3-c]pyridine] |  |  |  |  |  |  |  |  | 43 | 51 | 42 | 50 | 54 | 58 | 63.9 | 95 | 
14 | CN1Cc2ccsc2C(c2ccccc2)C1 (stereo not drawn) [derivative n°6, 5-Methyl-7-phenyl-4,5,6,7-tetrahydro-thieno[3,2-c]pyridine] |  |  |  |  |  |  |  |  | 47 | 55 | 45 | 52 | 56 | 58 | 61.7 | 90.4 | 
15 | N#Cc1ccccc1CN1Cc2ccsc2C(c2ccccc2)C1 (stereo not drawn) [derivative n°26] |  |  |  |  |  |  |  |  | 48 | 54 | 44 | 49 | 52 | 56 | 60.9 | 90.2 | 
